In PMC5421785, “Citrullination only infrequently impacts peptide binding to HLA class II MHC” (PLoS ONE, 2017):
Like-named read-outs stand apart in the source and are kept apart here. Square brackets hold non-standard residues; d marks the D form. Peptide text beside a SMILES is read from it. Cit = NC(=O)NCCC[C@H](N)C(=O)O

Key:
HLA-DRB1*01:01 = target: T1, HLA-DRB1*01:01 (Homo sapiens, UniProt P01903+P01911, A100R/D57E/F55L/F60I/F76Y/I96L/L162R/M171V/P40L/Q125E/R42F/V115G/Y59C); test: HLA class II peptide binding, inhibition of radiolabeled peptide binding to purified MHC
T1 construct: EBV transformed homozygous cell lines were used as sources of MHC molecules; endogenous in cells; host or cells: EBV transformed homozygous cell lines

HLA-DRB1*04:01 = target: T2, HLA-DRB1*04:01 (Homo sapiens, UniProt P01903+P01911, A100K/A169T/F76Y/I96L/K127E/L162R/M171V/N62H/P40V/Q125Y/R42H/S133A/S149N/S66Y/V115G/V209L/W38E); test: as above
T2 construct: EBV transformed homozygous cell lines were used as sources of MHC molecules; endogenous in cells; host or cells: EBV transformed homozygous cell lines

[1] = wild-type (unmodified Arg) 15-mer peptide, purified HLA-DRB1*01:01, read-out: DRB1*01:01 binding capacity, WT peptide (IC50 nM)
[2] = wild-type (unmodified Arg) 15-mer peptide, purified HLA-DRB1*04:01, read-out: DRB1*04:01 binding capacity, WT peptide (IC50 nM)
[3] = citrullinated 15-mer (X), purified MHC, inhibition of radiolabeled peptide binding, dash = IC50 >40,000 nM, read-out: DRB1*01:01 binding capacity, Cit peptide (IC50 nM)
[4] = citrullinated 15-mer (X), purified MHC, inhibition of radiolabeled peptide binding, dash = IC50 >40,000 nM, read-out: DRB1*04:01 binding capacity, Cit peptide (IC50 nM)
[5] = citrullinated 15-mer peptide (X = citrulline), purified HLA-DRB1*01:01, read-out: DRB1*01:01 binding capacity, Cit peptide (IC50 nM)
[6] = ratio of WT IC50 to Cit IC50, >1 = citrullination increases binding
[7] = citrullinated 15-mer peptide (X = citrulline), purified HLA-DRB1*04:01, read-out: DRB1*04:01 binding capacity, Cit peptide (IC50 nM)

| SMILES | IC50 (HLA-DRB1*01:01; [1]) [nM] | IC50 (HLA-DRB1*04:01; [2]) [nM] | IC50 (HLA-DRB1*01:01; [5]) [nM] | IC50 (HLA-DRB1*04:01; [7]) [nM] | further results |
| --- | --- | --- | --- | --- | --- |
| CC(C)C[C@H](NC(=O)[C@@H](NC(=O)[C@H](CC(N)=O)NC(=O)[C@H](CCC(=O)O)NC(=O)[C@H](C)NC(=O)[C@H](CCC(=O)O)NC(=O)[C@H](CCC(=O)O)NC(=O)[C@@H](N)CCCNC(N)=O)[C@@H](C)O)C(=O)N[C@@H](CCC(N)=O)C(=O)N[C@@H](CO)C(=O)N[C@@H](Cc1ccccc1)C(=O)N[C@@H](CCCNC(=N)N)C(=O)N[C@@H](CCC(N)=O)C(=O)N[C@@H](CC(=O)O)C(=O)N[C@H](C(=O)O)C(C)C [XEEAENTLQSFRQDV] (H-[Cit]EEAENTLQSFRQDV-OH) | – | – | – | – | IC50 (HLA-DRB1*01:01; [3]): 25300 nM; IC50 (HLA-DRB1*04:01; [4]): 6330 nM |
| C[C@H](NC(=O)CNC(=O)[C@@H]1CCCN1C(=O)[C@H](CO)NC(=O)CNC(=O)[C@H](CCC(=O)O)NC(=O)[C@@H](N)CCCNC(N)=O)C(=O)N[C@@H](CC(=O)O)C(=O)NCC(=O)N1CCC[C@H]1C(=O)N1CCC[C@H]1C(=O)NCC(=O)N[C@@H](CCCNC(=N)N)C(=O)N[C@@H](CC(=O)O)C(=O)NCC(=O)O [XEGSPGADGPPGRDG] (H-[Cit]EGSPGADGPPGRDG-OH; N-terminus and C-terminus assumed) | – | – | > 40000 | > 40000 | DRB1*01:01 binding capacity, WT/cit ratio (HLA-DRB1*01:01; [6]): 1.0; DRB1*04:01 binding capacity, WT/cit ratio (HLA-DRB1*04:01; [6]): 1.0 |
| CSCC[C@H](NC(=O)[C@H](CCC(=O)O)NC(=O)[C@H](CCC(=O)O)NC(=O)[C@H](CCC(N)=O)NC(=O)[C@H](CC(C)C)NC(=O)[C@H](CCCCN)NC(=O)[C@H](CCC(=O)O)NC(=O)[C@@H](N)CCCNC(N)=O)C(=O)N[C@@H](CC(C)C)C(=O)N[C@@H](CCC(N)=O)C(=O)N[C@@H](CCCNC(=N)N)C(=O)N[C@@H](CCC(=O)O)C(=O)N[C@@H](CCC(=O)O)C(=O)N[C@@H](C)C(=O)N[C@@H](CCC(=O)O)C(=O)O [XEKLQEEMLQREEAE] (H-[Cit]EKLQEEMLQREEAE-OH) | – | – | – | – | IC50 (HLA-DRB1*01:01; [3]): 26100 nM; IC50 (HLA-DRB1*04:01; [4]): > 40000 nM |
| CSCC[C@H](NC(=O)[C@@H](NC(=O)CNC(=O)[C@@H]1CCCN1C(=O)[C@H](CCC(N)=O)NC(=O)CNC(=O)[C@@H](N)CCCNC(N)=O)C(C)C)C(=O)NCC(=O)N[C@@H](Cc1ccccc1)C(=O)N1CCC[C@H]1C(=O)NCC(=O)N1CCC[C@H]1C(=O)N[C@@H](CCCCN)C(=O)NCC(=O)N[C@@H](C)C(=O)O [XGQPGVMGFPGPKGA] (H-[Cit]GQPGVMGFPGPKGA-OH) | – | – | 493 | > 40000 | – |

The next lines start with results.

| IC50 (HLA-DRB1*01:01; [1]) [nM] | IC50 (HLA-DRB1*04:01; [2]) [nM] | IC50 (HLA-DRB1*01:01; [5]) [nM] | IC50 (HLA-DRB1*04:01; [7]) [nM] | SMILES | further results |
| --- | --- | --- | --- | --- | --- |
| 1920 | 2710 | – | – | CC[C@H](C)[C@H](NC(=O)[C@H](CCCNC(=N)N)NC(=O)[C@H](CO)NC(=O)[C@H](CCC(=O)O)NC(=O)[C@H](CCC(=O)O)NC(=O)CNC(=O)[C@H](CCC(=O)O)NC(=O)[C@H](CC(C)C)NC(=O)[C@H](CC(C)C)NC(=O)[C@H](CCCCN)NC(=O)[C@@H](N)CCCNC(=N)N)C(=O)N[C@@H](CO)C(=O)N[C@@H](CC(C)C)C(=O)N1CCC[C@H]1C(=O)N[C@@H](CC(C)C)C(=O)O [Vimentin 401 WT] | – |
| 326 | 7000 | – | – | CC[C@H](C)[C@H](N)C(=O)N[C@@H](CO)C(=O)N[C@@H](CC(C)C)C(=O)N1CCC[C@H]1C(=O)N[C@@H](CC(C)C)C(=O)N1CCC[C@H]1C(=O)N[C@@H](CC(N)=O)C(=O)N[C@@H](Cc1ccccc1)C(=O)N[C@@H](CO)C(=O)N[C@@H](CO)C(=O)N[C@@H](CC(C)C)C(=O)N[C@@H](CC(N)=O)C(=O)N[C@@H](CC(C)C)C(=O)N[C@@H](CCCNC(=N)N)C(=O)N[C@@H](CCC(=O)O)C(=O)O [Vimentin 411 WT] | – |
| 96 | 3740 | – | – | CC(C)C[C@H](NC(=O)[C@H](CC(N)=O)NC(=O)[C@@H](NC(=O)[C@H](CCC(=O)O)NC(=O)[C@H](CCCNC(=N)N)NC(=O)[C@H](CC(C)C)NC(=O)[C@H](CC(N)=O)NC(=O)[C@@H](N)CC(C)C)[C@@H](C)O)C(=O)N[C@@H](CC(=O)O)C(=O)N[C@@H](CO)C(=O)N[C@@H](CC(C)C)C(=O)N1CCC[C@H]1C(=O)N[C@@H](CC(C)C)C(=O)N[C@H](C(=O)N[C@@H](CC(=O)O)C(=O)O)C(C)C [Vimentin 421 WT] | – |
| – | – | 57 | 1070 | CC[C@H](C)[C@H](NC(=O)[C@H](CC(=O)O)NC(=O)[C@H](CC(C)C)NC(=O)[C@H](C)NC(=O)[C@H](CCSC)NC(=O)[C@H](CCCCN)NC(=O)[C@@H](NC(=O)[C@H](CC(N)=O)NC(=O)[C@H](CC(C)C)NC(=O)[C@H](CC(C)C)NC(=O)[C@H](CC(=O)O)NC(=O)[C@H](CCC(N)=O)NC(=O)[C@H](Cc1ccc(O)cc1)NC(=O)[C@H](CCC(=O)O)NC(=O)[C@@H](N)CCCNC(N)=O)C(C)C)C(=O)O [XEYQDLLNVKMALDI] | – |
